Source: PMC11231610, “Fatty acid binding to the human transport proteins FABP3, FABP4, and FABP5 from a Ligand’s perspective” (The Journal of Biological Chemistry, 2024)
Values joined by “and” are separate entries in the source; they are usually repeats but may differ in a detail not shown here. Equal entries are not always repeated.

Key:
[1] = molecular target: T1, FABP4 (Homo sapiens, UniProt P15090); experiment: CW EPR spectra and spectral simulations of spin-probed fatty acids with FABP4; assay type: binding; conditions: 37 °C
T1 construct: purchased Sigma Aldrich
T1 sequence (P15090 whole entry): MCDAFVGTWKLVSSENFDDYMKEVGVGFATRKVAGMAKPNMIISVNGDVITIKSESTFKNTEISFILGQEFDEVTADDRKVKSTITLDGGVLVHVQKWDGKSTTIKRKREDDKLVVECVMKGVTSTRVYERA
Description: (§1) For a more in-depth view of the binding mechanism, CW EPR spectra of 5/16-DSA with concentration series of the FABPs were measured and simulated. […] Equal concentrations of 20 μM of each spin probe (5- and 16-DSA) were mixed with FABP concentrations of 0 to 200 μM, increasing the resulting ligand/protein ratio in the samples stepwise from 1/0 to 1/10.
(§2) To analyze the spectra quantitatively, subsequent EPR spectral simulations were performed (Fig. 2, B and C). […] For a better understanding, a first interpretation of these components is given at this point. The rotational dynamics are thought to be indirectly proportional to the strength of intermolecular interactions between fatty acid and FABP. Therefore, they are indicative of the binding state of the fatty acids. Higher rotational correlation times signalize lower ligand dynamics and stronger interactions with the protein. […] This exchange broadening can only occur if radicals are located very close distance each other, colliding with each other, leading to partial overlap of spin-bearing orbitals.
(§3) The fractions (weights) Φx of the spectral components were extracted from the EPR simulations of the concentration series and were used to calculate the concentrations of all components with Eq (1). in Figure 3. This was performed for the intermediately and strongly bound components, as well as for their sum, called totally bound 5/16-DSA, to construct binding curves for all FABPs and spin probes. […] Different fit functions were applied to the curves for a better qualitative and quantitative analysis.

[2] = molecular target: T2, FABP3 (Homo sapiens, UniProt P05413); experiment: CW EPR spectra and spectral simulations of spin-probed fatty acids with FABP3; assay type: binding
T2 construct: purchased Sigma Aldrich
T2 sequence (P05413 whole entry): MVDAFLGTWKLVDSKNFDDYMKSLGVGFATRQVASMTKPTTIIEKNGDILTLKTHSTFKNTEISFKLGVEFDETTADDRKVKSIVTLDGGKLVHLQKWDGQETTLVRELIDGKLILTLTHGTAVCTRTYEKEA
Description: as §1, §2, §3

[3] = molecular target: T3, FABP5 (Homo sapiens, UniProt Q01469); experiment: CW EPR spectra and spectral simulations of spin-probed fatty acids with FABP5; assay type: binding
T3 construct: purchased Sigma Aldrich
T3 sequence (Q01469 whole entry): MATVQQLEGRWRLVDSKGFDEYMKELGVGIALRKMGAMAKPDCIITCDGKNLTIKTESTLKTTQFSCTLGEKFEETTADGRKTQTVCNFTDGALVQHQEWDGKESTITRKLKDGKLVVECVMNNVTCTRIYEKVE
Description: as §1, §2, §3

[4] = molecular target: T3, FABP5; experiment: DHA displacement of 16-DSA from FABP5 by CW EPR; assay type: binding; conditions: FABP5/16-DSA/DHA up to 20/20/100
Source text: In a second addition during revision, we were curious about the question of whether our model ligands that bind with medium affinity to the FABP binding pocket will be displaced when we add a native ligand with higher affinity and whether we could detect this displacement with our CW EPR setup. The native ligand DHA was chosen for this displacement analysis since it is well-known to bind with high affinity to FABP5 ([26]). DHA was pre-dissolved in ethanol, diluted into buffer, and mixed with FABP5 and 16-DSA. […] Samples with FABP5/16-DSA/DHA ratios 20/20/0, 20/20/5, 20/20/10, 20/20/20, 20/20/50, and 20/20/100 were prepared with 5 min incubation time in between 16-DSA and DHA addition. […] We assume that the well-known high binding affinity of DHA refers to the state of strong binding within the pocket. […] Instead, a dynamic exchange of ligands seems to occur, as we consistently observe it with albumins from different species. However, this part opens the way to other future competitive binding assays via CW EPR spectroscopy, e.g., with pharmaceuticals that bind to FABPs.
CW EPR spectroscopic measurements were performed at X-band frequencies (∼9.4 GHz) with a benchtop spectrometer Magnettech MS-5000 (Freiberg Instruments GmbH, now Bruker Biospin). The samples were prepared in low-binding PCR tubes (250 μl). Protein and 5/16-DSA solutions were mixed with HEPES/NaCl buffer at pH 7.5, to obtain samples with a constant 5/16-DSA concentration of 20 μM and varying FABP concentrations of 200, 100, 50, 35, 25, 20, 15, 10 and 5 μM. After an incubation time of 20 min, the samples were transferred into glass capillaries, which were sealed with ‘Critoseal’. At first, solutions with 20 μM of 5/16-DSA were measured as references at 37 °C. The concentration series of FABP with 20 μM 5/16-DSA were measured at 37 °C, directly after preparation. Afterward, the sample capillaries were stored at 4 °C, and subsequent temperature-dependent measurements were performed. […]

[5] = molecular target: FABPs; parameters: method as in PMID 11461829; conditions: moderate to high binding affinities of FABPs, ref [2]; cited from earlier work
[6] = molecular target: T1, FABP4; experiment: MST binding of fluorescent fatty acids to FABP4
Description: (§4) FABPs are known to bind more hydrophobic ligands with higher affinity ([1]).
(§5) Microscale thermophoresis (MST) experiments were carried out on a Monolith NT.115 MST device (NanoTemper Technologies GmbH). […] […] In order to minimize the effect of protein aggregation, 0.05 Vol-% of Tween 20 (NanoTemper Technologies GmbH) were added to the HEPES/NaCl buffer solution. Samples were prepared in low-binding Eppendorf tubes. The influence of photobleaching on the quantum yield was reduced by using freshly diluted fluorophore solutions and storing the samples under the exclusion of light during the incubation time of 10 min. The samples were loaded into premium capillaries (NanoTemper Technologies GmbH). The coated capillary surface is designed to avoid the adhesion of molecules. Initially, repeated pre-tests without protein but with different fluorophore concentrations were carried out. This was done to find the optimum concentration and excitation power and to check the fluorescence activity of the fluorophores. The fluorescence intensity had to be in the range of 300 to 600 counts, with preferably smooth MST traces. For binding affinity measurements, the concentration of the fluorescent fatty acid was held constant at 80 nM, while the non-labeled FABPs were used at variable concentrations in a dilution series. The power of the IR laser was held constant at a medium set for all measurements, generating a constant temperature gradient. The measurements were performed as duplicates, using the software MO. Control (version 1.6) and afterward analyzed with the software MO. Affinity Analysis (version 2.3) (NanoTemper Technologies GmbH). The mean fluorescence intensities at the start time were divided by the values at the end time of the MST traces and normalized, obtaining the MST signal Fnorm. For all analyses, the end time was manually set to 1.5 s after the start of the heating process. Fnorm was normalized for the amplitude and baseline corrected to obtain the bound fraction.

[7] = molecular target: T2, FABP3; experiment: MST binding of fluorescent fatty acids to FABP3
Description: as §4, §5

[8] = molecular target: T3, FABP5; experiment: MST binding of fluorescent fatty acids to FABP5
Description: as §4, §5

[9] = 37 °C, 20 μM spin probe, EPR binding curve, read-out: KD,T,75′ (fit), apparent KD read at 75% totally bound
[10] = Fig. 2B, 20 μM 5-DSA with 100 μM FABP3
[11] = Hill fit of EPR binding curve, totally bound, 37 °C
[12] = Hill fit, totally bound (T), y = bound 5/16-DSA
[13] = read-out: KD,T,50′ (fit), apparent KD read at 50% totally bound, 37 °C, 20 μM spin probe, EPR binding curve
[14] = 80 nM rhodamine-PA, HEPES/NaCl pH 7.5 with 0.05 Vol-% Tween 20

CCCCCCCCCCCCCC1(CCCC(=O)O)OCC(C)(C)N1[O] (centres unmarked) [5-DSA, 5-DOXYL stearic acid]
Kd ([1]; 20 μM FABP4, 20 μM spin probe, read-out: KD,T,20μM (calculated, totally bound)): 20.8 ± 0.8 µM
Kd ([1]; 20 μM spin probe, EPR binding curve, read-out: KD,T,75′ (fit), apparent KD read at 75% totally bound): 66 ± 0.7 µM
Kd ([1]; 50 μM FABP4, 20 μM spin probe, read-out: KD,T,50μM (calculated, totally bound)): 25.3 ± 1 µM
ΔGF−I,100μM (free to intermediately bound) ([1]; 100 μM FABP4): -6.19 ± 0.096 kcal/mol
ΔGF−S,100μM (free to strongly bound) ([1]; 100 μM FABP4): -4.85 ± 0.024 kcal/mol
ΔGF−T,100μM (free to totally bound) ([1]; 100 μM FABP4): -7.12 ± 0.263 kcal/mol
ΔGI−S,100μM (intermediately to strongly bound) ([1]; 100 μM FABP4): 0.741 ± 0.048 kcal/mol
Kd ([1]; 100 μM FABP4, 20 μM spin probe, read-out: KD,T,100μM (calculated, totally bound)): 9.53 ± 0.53 µM
aiso, component (1) free ([1]; EPR simulation): 44.1 MHz
aiso, component (2) intermediately bound ([1]; EPR simulation): 46.9 MHz
aiso, component (3) strongly bound ([1]; EPR simulation): 43.0 MHz
τc,iso, component (1) free ([1]; EPR simulation): 0.06–0.08 ns
τc,iso, component (2) intermediately bound ([1]; EPR simulation): 4.8 ns
τc,iso, component (3) strongly bound ([1]; EPR simulation): 17.9 ns
Hill coefficient n ([1]; Hill fit of EPR binding curve, totally bound): > 1
Kd ([1]; read-out: KD,T,50′ (fit), apparent KD read at 50% totally bound, 20 μM spin probe, EPR binding curve): 31.6 ± 0.3 µM
Kd ([2]; 37 °C, 20 μM FABP3, 20 μM spin probe, read-out: KD,T,20μM (calculated, totally bound)): 0.82 ± 0.65 µM
Kd [2, 9]: 17.4 ± 0.2 µM
Kd ([2]; 37 °C, 50 μM FABP3, 20 μM spin probe, read-out: KD,T,50μM (calculated, totally bound)): 2.44 ± 1.87 µM
ΔGF−I,100μM (free to intermediately bound) ([2]; 37 °C, 100 μM FABP3): -6.84 ± 0.22 kcal/mol
ΔGF−S,100μM (free to strongly bound) ([2]; 37 °C, 100 μM FABP3): -4.4 ± 0.048 kcal/mol
ΔGF−T,100μM (free to totally bound) ([2]; 37 °C, 100 μM FABP3): -8.08 ± 0.813 kcal/mol
ΔGI−S,100μM (intermediately to strongly bound) ([2]; 37 °C, 100 μM FABP3): 1.27 ± 0.072 kcal/mol
Kd ([2]; 37 °C, 100 μM FABP3, 20 μM spin probe, read-out: KD,T,100μM (calculated, totally bound)): 2.06 ± 2.68 µM
aiso, component (1) free ([2]; 37 °C, EPR simulation): 44.1 MHz
aiso, component (2) intermediately bound ([2]; 37 °C, EPR simulation): 42.9 MHz
aiso, component (3) strongly bound ([2]; 37 °C, EPR simulation): 41.3 MHz
τc,iso, component (1) free ([2]; 37 °C, EPR simulation): 0.1 ns
τc,iso, component (2) intermediately bound ([2]; 37 °C, EPR simulation): 4.8–4.9 ns
τc,iso, component (3) strongly bound ([2]; 37 °C, EPR simulation): 17.9–19 ns
bound molecules at complete saturation ([2]; 37 °C, tenfold protein excess, totally bound): 100%
rotational correlation time τc, component (1) [2, 10]: 0.1 ns
rotational correlation time τc, component (3) [2, 10]: 17.8 ns
Hill coefficient n [2, 11]: 1.898 and > 1
Hill fit k ([2]; Hill fit, totally bound (T), x = c(FABP3)/c(5/16-DSA)): 0.475 ± 0.019
Hill fit Vmax [2, 12]: 98.766 ± 1.7
Kd [2, 13]: 9.6 ± 0.1 µM
Kd ([3]; 37 °C, 20 μM FABP5, 20 μM spin probe, read-out: KD,T,20μM (calculated, totally bound)): 2.05 ± 0.5 µM
Kd [3, 9]: 25 ± 0.3 µM
Kd ([3]; 37 °C, 50 μM FABP5, 20 μM spin probe, read-out: KD,T,50μM (calculated, totally bound)): 5.82 ± 1.14 µM
ΔGF−I,100μM (free to intermediately bound) ([3]; 37 °C, 100 μM FABP5): -6.14 ± 0.048 kcal/mol
ΔGF−S,100μM (free to strongly bound) ([3]; 37 °C, 100 μM FABP5): -4.97 ± 0.024 kcal/mol
ΔGF−T,100μM (free to totally bound) ([3]; 37 °C, 100 μM FABP5): -7.24 ± 0.19 kcal/mol
ΔGI−S,100μM (intermediately to strongly bound) ([3]; 37 °C, 100 μM FABP5): 0.621 ± 0.024 kcal/mol
Kd ([3]; 37 °C, 100 μM FABP5, 20 μM spin probe, read-out: KD,T,100μM (calculated, totally bound)): 7.79 ± 0.37 µM
aiso, component (1) free ([3]; 37 °C, EPR simulation): 44.1 MHz
aiso, component (2) intermediately bound ([3]; 37 °C, EPR simulation): 44.9–46.9 MHz
aiso, component (3) strongly bound ([3]; 37 °C, EPR simulation): 42.3–43.7 MHz
τc,iso, component (1) free ([3]; 37 °C, EPR simulation): 0.09–0.1 ns
τc,iso, component (2) intermediately bound ([3]; 37 °C, EPR simulation): 4.8 ns
τc,iso, component (3) strongly bound ([3]; 37 °C, EPR simulation): 17.9 ns
totally bound fraction ([3]; 37 °C, high FABP5 excess): 94.8%
Hill coefficient n [3, 11]: 1.109 ± 0.041 and ≈ 1
Hill fit k ([3]; Hill fit, totally bound (T), x = c(FABP5)/c(5/16-DSA)): 0.352 ± 0.009
Hill fit Vmax [3, 12]: 96.295 ± 0.907
Kd [3, 13]: 6.6 ± 0.1 µM

CC/C=C\C/C=C\C/C=C\C/C=C\C/C=C\C/C=C\CCC(=O)O [DHA, Cis-4,7,10,13,16,19-Docosahexaenoic acid]
bound 16-DSA with rising DHA content [4]: 55%
displacement of 16-DSA [4]: no complete displacement of 16-DSA occurred

CCCCCCCC/C=C\CCCCCCCC(=O)O [oleic acid]
Kd [5]: 0.44 to 1.56 µM

CCN(CC)c1ccc2c(-c3ccc(S(=O)(=O)NCCCCCCCCCCCCCCCC(=O)O)cc3S(=O)(=O)[O-])c3ccc(=[N+](CC)CC)cc-3oc2c1 [rhodamine-PA, [16-N-(lissamine rhodamine ß sulfonyl)amino] palmitic acid]
lnKA [6]: 11.46 ± 0.18
Kd ([6]; 80 nM rhodamine-PA, FABP4 handled in water): 10.5 ± 2.1 µM
ΔGm,A (molar Gibbs energy of association) ([6]; at 22 °C, van't Hoff equation): -6.72 ± 0.105 kcal/mol
lnKA [7]: 12.56 ± 0.11
Kd [7, 14]: 3.5 ± 0.4 µM
ΔGm,A (molar Gibbs energy of association) ([7]; at 22 °C, van't Hoff equation): -7.36 ± 0.0645 kcal/mol
lnKA [8]: 11.7 ± 0.08
Kd [8, 14]: 8.3 ± 0.7 µM
ΔGm,A (molar Gibbs energy of association) ([8]; at 22 °C, van't Hoff equation): -6.86 ± 0.048 kcal/mol
